Experiment: Solubility of fluindapyr in test solvent at 140 g/L, crystal growth check after one week at 0° C.
Assay type: physicochemical
Design: key: PASS: A solution without crystal growth under the storage condition was considered a Pass
Description: In order to test the solubility of an active ingredient comprising an aminoindane amide active compound, fluindapyr was added into a test solvent at the concentration of 140 g/L under sufficient agitation. The test solvents were selected based on Hansen Solubility Parameters with a Relative Energy Difference (RED) of between 0.7 and 1.6. The completed dissolved solutions were further stored for one week at 0° C. to check if any crystals grew or not under the storage condition.

CC1CC(C)(C)c2c(F)ccc(NC(=O)c3cn(C)nc3C(F)F)c21 (centres unmarked) [fluindapyr]
Dissolution (solvent 2-ethylhexanol): FAIL
Dissolution (solvent N,N-dimethyldecanamide): PASS
Dissolution (solvent N-butyl acetate): FAIL
Dissolution (solvent N-heptane): FAIL
Dissolution (solvent O-dichlorobenzene): FAIL
Dissolution (solvent POWERBLOX SV-17): FAIL
Dissolution (solvent acetonitrile): FAIL
Dissolution (solvent dibutyl ether): FAIL
Dissolution (solvent diethylene glycol monoethyl ether): PASS
Dissolution (solvent diethylene glycol monomethyl ether): PASS
Dissolution (solvent diethylene glycol n-butyl ether acetate): FAIL
Dissolution (solvent diisobutyl ketone): FAIL
Dissolution (solvent dimethyl formamide): FAIL
Dissolution (solvent dipropylene glycol methyl ether acetate): FAIL
Dissolution (solvent dipropylene glycol n-butyl ether): FAIL
Dissolution (solvent dipropylene glycol n-propyl ether): FAIL
Dissolution (solvent dipropyleneglycol phenyl ether): FAIL
Dissolution (solvent ethoxytriglycol): FAIL
Dissolution (solvent ethylene glycol monobutyl ether): FAIL
Dissolution (solvent ethylene glycol n-butyl ether acetate): FAIL
Dissolution (solvent ethylene glycol phenyl ether): FAIL
Dissolution (solvent isobutyl heptyl ketone): FAIL
Dissolution (solvent methyl alcohol): FAIL
Dissolution (solvent methyl ethyl ketone): FAIL
Dissolution (solvent methyl isobutyl ketone): FAIL
Dissolution (solvent perchloroethylene): FAIL
Dissolution (solvent propylene carbonate): FAIL
Dissolution (solvent propylene glycol): FAIL
Dissolution (solvent propylene glycol diacetate): FAIL
Dissolution (solvent propylene glycol monomethyl ether acetate): FAIL
Dissolution (solvent propylene glycol n-butyl ether): FAIL
Dissolution (solvent propylene glycol phenyl ether): FAIL
Dissolution (solvent tetrahydrofuran): FAIL
Dissolution (solvent toluene): FAIL
Dissolution (solvent tripropylene glycol n-butyl ether): FAIL

Reference: US11596151B2, “Compositions for the protection of agrarian crops and use thereof” (priority 2017, dated 2023)
